These results are taken from patent US20260174875A1 (Novo Nordisk A/S, priority 2023, published 2026).

This data set in a line: Chemical stability assessment in formulation (UPLC-UV-MS purity loss at 37° C.). The data set is classed as physicochemical. To be noted: 8 mM phosphate buffer pH 7.4, 1 mg/mL, 2 weeks. How it is done:
The assay was performed to investigate the extend of chemical degradation in vitro over time upon incubation at 37° C. for a period of 2 weeks.
Peptide solutions were prepared by dissolving freeze-dried powder in 8 mM phosphate buffer pH 7.4 to a target of 1 mg/mL. The pH of peptide solutions was adjusted to 7.4 with 0.02 M HCl or 0.02 M NaOH. Samples were filled in Agilent HPLC vials with fixed insert. Vials were capped to prevent evaporation. The HPLC vials were incubated at 37° C. and samples were withdrawn at different time points over a period of 2 weeks, flash frozen at −80° C., and stored at −20° C. until analysis.
A flow-rate of 100 μL/min was delivered with a Binary solvent manager pump having 0.1% formic acid in water as solvent A and 0.1% formic acid in acetonitrile as solvent B. Gradient elution was carried out using 20% B from 0 to 2 min followed by 20 to 50% B from 2 to 20 min in a total run time of 30 min.

For `CC[C@H](C)[C@H](NC(=O)[C@H](CCC(=O)O)NC(=O)[C@H](CCC(=O)O)NC(=O)[C@H](CC(C)C)NC(=O)[C@H](CC(C)C)NC(=O)[C@H](CCCCNC(=O)COCCOCCNC(=O)COCCOCCNC(=O)CC[C@H](NC(=O)CCCCCCCCCCCCCCCCCCC(=O)O)C(=O)O)NC(=O)[C@H](CO)NC(=O)[C@H](Cc1ccc(O)cc1)NC(=O)[C@H](CC(=O)O)NC(=O)[C@H](CO)NC(=O)[C@@H](NC(=O)[C@H](Cc1ccccc1)NC(=O)[C@@H](NC(=O)CNC(=O)[C@H](CCC(=O)O)NC(=O)C(C)(C)NC(=O)[C@@H](N)Cc1ccc(O)cc1)[C@@H](C)O)[C@@H](C)O)C(=O)N[C@@H](C)C(=O)N[C@@H](C)C(=O)N[C@@H](CCCNC(=N)N)C(=O)N[C@@H](CCC(=O)O)C(=O)N[C@@H](Cc1ccccc1)C(=O)N[C@H](C(=O)N[C@@H](CCC(=O)O)C(=O)N[C@@H](Cc1c[nH]c2ccccc12)C(=O)N[C@@H](CC(C)C)C(=O)N[C@@H](CC(C)C)C(=O)N[C@@H](C)C(=O)NCC(=O)NCC(=O)N1CCC[C@H]1C(=O)N[C@@H](CO)C(=O)N[C@@H](CO)C(=O)NCC(=O)N[C@@H](C)C(=O)NCC(=O)N[C@@H](C)C(=O)N[C@@H](CO)C(=O)N[C@@H](CCC(=O)O)C(=O)N[C@@H](CC(C)C)C(=O)N[C@@H](CO)C(=O)N[C@H](C(=O)N[C@@H](C)C(=O)N[C@@H](CCC(N)=O)C(=O)N[C@@H](CC(C)C)C(=O)NCC(=O)N[C@@H](CCCNC(=N)N)C(=O)N[C@@H](CC(C)C)C(=O)N[C@@H](CO)C(=O)N[C@@H](C)C(=O)N[C@@H](CCC(=O)O)C(=O)N[C@@H](CC(C)C)C(=O)N[C@@H](Cc1c[nH]cn1)C(=O)N[C@@H](CCC(N)=O)C(=O)N[C@@H](CC(C)C)C(=O)N[C@@H](C)C(=O)N[C@H](C(=O)N[C@@H](CCC(=O)O)C(=O)N1CCC[C@H]1C(=O)N[C@@H](CCCNC(=N)N)C(=O)N[C@H](C(=O)N[C@@H](CCC(=O)O)C(=O)N[C@H](C(=O)NCC(=O)N[C@@H](CO)C(=O)NCC(=O)N[C@@H](CO)C(=O)N1CCC[C@H]1C(N)=O)[C@@H](C)O)[C@@H](C)O)[C@@H](C)O)[C@@H](C)O)[C@@H](C)CC` [Compound 186], the “Purity loss per week at 37° C.” value came out at 1.0%. Turning to `CC[C@H](C)[C@H](NC(=O)[C@H](CCC(=O)O)NC(=O)[C@H](CCC(=O)O)NC(=O)[C@H](CC(C)C)NC(=O)[C@H](CC(C)C)NC(=O)[C@H](CCCCNC(=O)COCCOCCNC(=O)COCCOCCNC(=O)CC[C@H](NC(=O)CCCCCCCCCCCCCCCCCCC(=O)O)C(=O)O)NC(=O)[C@H](CO)NC(=O)[C@H](Cc1ccc(O)cc1)NC(=O)[C@H](CC(=O)O)NC(=O)[C@H](CO)NC(=O)[C@@H](NC(=O)[C@H](Cc1ccccc1)NC(=O)[C@@H](NC(=O)CNC(=O)[C@H](CCC(=O)O)NC(=O)C(C)(C)NC(=O)[C@@H](N)Cc1ccc(O)cc1)[C@@H](C)O)[C@@H](C)O)C(=O)N[C@@H](C)C(=O)N[C@@H](C)C(=O)N[C@@H](CCCNC(=N)N)C(=O)N[C@@H](CCC(=O)O)C(=O)N[C@@H](Cc1ccccc1)C(=O)N[C@H](C(=O)N[C@@H](CCC(=O)O)C(=O)N[C@@H](Cc1c[nH]c2ccccc12)C(=O)N[C@@H](CC(C)C)C(=O)N[C@@H](CC(C)C)C(=O)N[C@@H](C)C(=O)NCC(=O)NCC(=O)N1CCC[C@H]1C(=O)N[C@@H](CO)C(=O)N[C@@H](CO)C(=O)NCC(=O)N[C@@H](C)C(=O)NCC(=O)N[C@@H](CCC(N)=O)C(=O)N[C@@H](C)C(=O)N1CCC[C@H]1C(=O)NCC(=O)N[C@@H](CCC(N)=O)C(=O)N[C@@H](C)C(=O)N1CCC[C@H]1C(=O)NCC(=O)N[C@@H](C)C(=O)N[C@@H](CO)C(=O)N[C@@H](Cc1c[nH]cn1)C(=O)N[C@@H](CC(C)C)C(=O)N[C@@H](CO)C(=O)N[C@H](C(=O)N[C@@H](C)C(=O)N[C@@H](CCC(N)=O)C(=O)N[C@@H](CC(C)C)C(=O)NCC(=O)N[C@@H](CCCNC(=N)N)C(=O)N[C@@H](CC(C)C)C(=O)N[C@@H](CO)C(=O)N[C@@H](C)C(=O)N[C@@H](CCC(=O)O)C(=O)N[C@@H](CC(C)C)C(=O)N[C@@H](Cc1c[nH]cn1)C(=O)N[C@@H](CCC(N)=O)C(=O)N[C@@H](CC(C)C)C(=O)N[C@@H](C)C(=O)N[C@H](C(=O)N[C@@H](CC(C)C)C(=O)N1CCC[C@H]1C(=O)N[C@@H](CCCNC(=N)N)C(=O)N[C@H](C(=O)N[C@@H](CCC(=O)O)C(=O)N[C@H](C(=O)NCC(=O)N[C@@H](CO)C(=O)NCC(=O)N[C@@H](CO)C(=O)N1CCC[C@H]1C(N)=O)[C@@H](C)O)[C@@H](C)O)[C@@H](C)O)[C@@H](C)O)[C@@H](C)CC` [Compound 123], the “Purity loss per week at 37° C.” value is 1.0%.

Regarding `CC[C@H](C)[C@H](NC(=O)[C@H](CCC(=O)O)NC(=O)[C@H](CCC(=O)O)NC(=O)[C@H](CC(C)C)NC(=O)[C@H](CC(C)C)NC(=O)[C@@H](NC(=O)[C@H](CO)NC(=O)[C@H](Cc1ccc(O)cc1)NC(=O)[C@H](CC(=O)O)NC(=O)[C@H](CO)NC(=O)[C@@H](NC(=O)[C@H](Cc1ccccc1)NC(=O)[C@@H](NC(=O)CNC(=O)[C@H](CCC(=O)O)NC(=O)C(C)(C)NC(=O)[C@@H](N)Cc1ccc(O)cc1)[C@@H](C)O)[C@@H](C)O)[C@@H](C)CC)C(=O)N[C@@H](C)C(=O)N[C@@H](C)C(=O)N[C@@H](CCCNC(=N)N)C(=O)N[C@@H](CCC(=O)O)C(=O)N[C@@H](Cc1ccccc1)C(=O)N[C@H](C(=O)N[C@@H](CCC(=O)O)C(=O)N[C@@H](Cc1c[nH]c2ccccc12)C(=O)N[C@@H](CC(C)C)C(=O)N[C@@H](CC(C)C)C(=O)N[C@@H](C)C(=O)NCC(=O)NCC(=O)N1CCC[C@H]1C(=O)N[C@@H](CO)C(=O)N[C@@H](CO)C(=O)NCC(=O)N[C@@H](C)C(=O)NCC(=O)N[C@@H](CCC(N)=O)C(=O)N[C@@H](C)C(=O)N1CCC[C@H]1C(=O)NCC(=O)N[C@@H](CCC(N)=O)C(=O)N[C@@H](C)C(=O)N1CCC[C@H]1C(=O)NCC(=O)N[C@@H](C)C(=O)N[C@@H](CO)C(=O)N[C@@H](Cc1c[nH]cn1)C(=O)N[C@@H](CC(C)C)C(=O)N[C@@H](CO)C(=O)N[C@H](C(=O)N[C@@H](C)C(=O)N[C@@H](CCC(N)=O)C(=O)N[C@H](C(=O)N[C@@H](CCC(N)=O)C(=O)N[C@@H](CCCNC(=N)N)C(=O)N[C@@H](CC(C)C)C(=O)N[C@@H](CO)C(=O)N[C@@H](C)C(=O)N[C@@H](CCC(=O)O)C(=O)N[C@@H](CC(C)C)C(=O)N[C@@H](Cc1c[nH]cn1)C(=O)N[C@@H](CCCCNC(=O)COCCOCCNC(=O)COCCOCCNC(=O)CC[C@H](NC(=O)CCCCCCCCCCCCCCCCCCC(=O)O)C(=O)O)C(=O)N[C@@H](CC(C)C)C(=O)N[C@@H](C)C(=O)N[C@H](C(=O)N[C@@H](CCC(=O)O)C(=O)N1CCC[C@H]1C(=O)N[C@@H](CCCNC(=N)N)C(=O)N[C@H](C(=O)N[C@@H](CCC(=O)O)C(=O)N[C@H](C(=O)NCC(=O)N[C@@H](CO)C(=O)NCC(=O)N[C@@H](CO)C(=O)N1CCC[C@H]1C(N)=O)[C@@H](C)O)[C@@H](C)O)[C@@H](C)O)[C@@H](C)O)[C@@H](C)O)[C@@H](C)CC` [Compound 162], the “Purity loss per week at 37° C.” value is recorded as 1.0%. With `CC[C@H](C)[C@H](NC(=O)[C@H](CCC(=O)O)NC(=O)[C@H](CCC(=O)O)NC(=O)[C@H](CC(C)C)NC(=O)[C@H](CC(C)C)NC(=O)[C@H](CCCCNC(=O)COCCOCCNC(=O)COCCOCCNC(=O)CC[C@H](NC(=O)CCCCCCCCCCCCCCCCCCC(=O)O)C(=O)O)NC(=O)[C@H](CO)NC(=O)[C@H](Cc1ccc(O)cc1)NC(=O)[C@H](CC(=O)O)NC(=O)[C@H](CO)NC(=O)[C@@H](NC(=O)[C@H](Cc1ccccc1)NC(=O)[C@@H](NC(=O)CNC(=O)[C@H](CCC(=O)O)NC(=O)C(C)(C)NC(=O)[C@@H](N)Cc1ccc(O)cc1)[C@@H](C)O)[C@@H](C)O)C(=O)N[C@@H](C)C(=O)N[C@@H](C)C(=O)N[C@@H](CCCNC(=N)N)C(=O)N[C@@H](CCC(=O)O)C(=O)N[C@@H](Cc1ccccc1)C(=O)N[C@H](C(=O)N[C@@H](CCC(=O)O)C(=O)N[C@@H](Cc1c[nH]c2ccccc12)C(=O)N[C@@H](CC(C)C)C(=O)N[C@@H](CC(C)C)C(=O)N[C@@H](C)C(=O)NCC(=O)NCC(=O)N1CCC[C@H]1C(=O)N[C@@H](CO)C(=O)N[C@@H](CO)C(=O)NCC(=O)N[C@@H](C)C(=O)NCC(=O)N[C@@H](CCC(N)=O)C(=O)N[C@@H](C)C(=O)N1CCC[C@H]1C(=O)NCC(=O)N[C@@H](CCC(=O)O)C(=O)N[C@@H](C)C(=O)N1CCC[C@H]1C(=O)NCC(=O)N[C@@H](C)C(=O)N[C@@H](CO)C(=O)N[C@@H](CCC(=O)O)C(=O)N[C@@H](CC(C)C)C(=O)N[C@@H](CO)C(=O)N[C@H](C(=O)N[C@@H](C)C(=O)N[C@@H](C)C(=O)N[C@@H](CC(C)C)C(=O)NCC(=O)N[C@@H](CCCNC(=N)N)C(=O)N[C@@H](CC(C)C)C(=O)N[C@@H](CO)C(=O)N[C@@H](C)C(=O)N[C@@H](CCC(=O)O)C(=O)N[C@@H](CC(C)C)C(=O)N[C@@H](Cc1c[nH]cn1)C(=O)N[C@@H](CCC(N)=O)C(=O)N[C@@H](CC(C)C)C(=O)N[C@@H](C)C(=O)N[C@H](C(=O)N[C@@H](CCC(=O)O)C(=O)N1CCC[C@H]1C(=O)N[C@@H](CCCNC(=N)N)C(=O)N[C@H](C(=O)N[C@@H](CCC(=O)O)C(=O)N[C@H](C(=O)NCC(=O)N[C@@H](CO)C(=O)NCC(=O)N[C@@H](CO)C(=O)N1CCC[C@H]1C(N)=O)[C@@H](C)O)[C@@H](C)O)[C@@H](C)O)[C@@H](C)O)[C@@H](C)CC` [Compound 172] the figure was 0.9%.
